# Test results from article PMC8895377, “In Vivo Targeting Replication Protein A for Cancer Therapy” (Frontiers in Oncology, 2022).
# How the values were obtained:
# H460 cells = assay: DNA fiber analysis of replication fork dynamics; format: cell-based, human
# Experimental: Analysis of DNA replication intermediates was performed as previously described with minor modifications ([11], [12]). H460 cells were seeded in 6-well plates at a density of 2 × 10^5 cells. […] After harvesting, the cells were resuspended in PBS at a concentration of 1,000,000 cells/ml, and 2 µl of the cell suspension was mixed with 8 µl of lysis buffer (200 mM Tris-HCl pH 7.5, 50 mM EDTA, 0.5% SDS) on a Superfrost Plus microscope slide (Fisher Scientific). After 6 min of incubation, the slides were tilted at a 45-degree angle to allow cell lysates to slowly run down the slide. After air-drying, the slides were fixed in methanol:acetic acid (3:1) and stored at 4°C. DNA fibers were denatured with 2.5N HCl for 1 h, washed with PBS, and blocked with 5% BSA in PBS-T (PBS + 0.1% Tween-20) for 1 h. […] Excess antibodies were removed by washing with PBS-T 3 times. After air-drying, the slides were mounted onto a coverslip with mounting medium. Fiber tracts were imaged with a Nikon epifluorescence microscope using a 40× oil immersion objective, and 100 fibers for each group were analyzed in ImageJ where the ratios of CldU : IdU were compared using pixel length. Data were analyzed by ANOVA with Bonferroni test for multiple comparisons.
# (A) Schematic depiction of experimental design. DNA was pulse-labeled with IdU for 20 min. After IdU removal, replication forks were stalled by the addition of HU or left to replicate with vehicle treatment. HU was removed, and replication was labeled with CldU. Following CldU, cells were treated with the DDRi or vehicle. […] Data presented are combined from three individual experiments (100 fibers analyzed per experiment; 300 fibers total). Red bar indicates the median value of CldU/IdU.
# [1] = In vivo toxicity analysis
# [2] = Chemical stability in lead formulation; format: physicochemical; conditions: for t90: 10 mg/ml in lead formulation; for predicted time stable: lead formulation; for fourteen-day stability: final formulation
# Experimental: With favorable potency, cellular activity, plasma stability, and a clear deficit in PK, we initiated a series of studies to assess and optimize a formulation of 329 for in vivo bioavailability. Here, 329 solubility was assessed in a series of additives, excipients, and co-solvents to identify initial favorable vehicles ( Table 2 ). […] A series of different formulations were assessed. The final formulation consisted of polysorbate 80, N-methyl-2-pyrrolidone (NMP), propylene glycol, and PEG 400 (+1.1 mol. eq. HCl added as 12 M HCl), and 329 was soluble up to 20 mg/ml, and 10-fold dilution in PBS was well dispersed with minimal precipitation.
# Figure 7 The 329 in vivo analysis. (A) Stability analysis. Compound stability was assessed over a 14-day time period at varying temperatures as indicated. (B) Pharmacokinetic analysis. Time course of drug plasma concentration over 24 h following drug administration as indicated in legend.
structure (smiles),measurement,setting,value
CCOc1ccc2cc(C3CC(c4ccc(I)cc4)=NN3C(=O)CCCC(=O)NCCCN3CCOCC3)c(Cl)nc2c1 (centres unmarked) [compound 329],CldU/IdU signal after HU,"H460 cells; H460, HU 2.5 mM then 329 50 µM or VE-822 2 µM",significant decrease in CldU/IdU signal
same,"CldU/IdU, inhibitor alone","H460 cells; H460, without HU, 329 50 µM, VE-822 2 µM, 2 h",minimal effects
same,toxicity,[1]; 200 mg/kg in the new formulation,increased toxicity
same,kidney function,"[1]; DMSO/Tween formulation, data not shown",no differences from vehicle controls
same,toxicity,"[1]; dosing up to 200 mg/kg, suspension in DMSO/Tween",no overt toxicity
same,body weight,"[1]; up to 200 mg/kg, suspension in DMSO/Tween",no significant loss in body weight
same,t90,[2]; 5°C (extrapolated),2100 days
same,predicted time stable,"[2]; 5°C, extrapolated",over 5 years
same,t90,[2]; 25°C,140 days
same,t90,[2]; 40°C,26 days
same,t90,[2]; 60°C,3.2 days
same,fourteen-day stability,[2]; extended incubations at 60°C,degradation was observed
same,predicted time stable,[2]; room temperature,over 3 months
same,fourteen-day stability,[2]; up to 40°C,very stable
